Reference: ChEMBL document CHEMBL1149836, “Antifungal metabolites from the plant endophytic fungus Pestalotiopsis foedan” (2008)

Key:
Assay type in all cases: functional
Candida albicans = test: Antifungal activity against Candida albicans ATCC 10231 at 100 ug/ml after 48 hrs by agar diffusion assay; settings: ATCC 10231, 48 h, read-out: IZ
Aspergillus fumigatus = test: Antifungal activity against Aspergillus fumigatus ATCC 10894 at 100 ug/ml after 48 hrs by agar diffusion assay; settings: ATCC 10894, 48 h, read-out: IZ
Geotrichum candidum = test: Antifungal activity against Geotrichum candidum AS2.498 at 100 ug/ml after 48 hrs by agar diffusion assay; settings: read-out: IZ

SMILES: Cc1c(O)cc2c(c1O)C(=O)O[C@@H]2[C@H](C)O [PESTAPHTHALIDE A]
- zone of inhibition at 100 µg/mL (Candida albicans): 13 mm

SMILES: C[C@H]1CCC[C@@]2(CC3=C(CO2)C(=O)[C@](C)(O)[C@@H](O)C3)O1 [PESTAFOLIDE A]
- zone of inhibition at 100 µg/mL (Aspergillus fumigatus): 10 mm

SMILES: Cc1c(O)cc2c(c1O)C(=O)O[C@H]2[C@H](C)O [PESTAPHTHALIDE B]
- zone of inhibition at 100 µg/mL (Geotrichum candidum): 11 mm

SMILES: OC(Cn1cncn1)(Cn1cncn1)c1ccc(F)cc1F [FLUCONAZOLE]
- zone of inhibition at 100 µg/mL (Candida albicans): 18 mm
- zone of inhibition at 100 µg/mL (Aspergillus fumigatus): 18 mm
- zone of inhibition at 100 µg/mL (Geotrichum candidum): 18 mm
